Data: the supplement of paper PMC4932681

Legend:
Assay in all cases: viability inhibition at highest dose (% inhibition); higher = more growth inhibition
BT-474 Tam1 = details: 4-OH-tamoxifen in medium 1 µM; 72 h
Procedure, shortened: (§1)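 After seeding into 384-well plates with library drugs at five concentrations spanning a 10 000-fold range, breast cancer cell lines and their resistant derivatives were incubated 72 h at 37 °C. Resistant lines received medium with 1 μM of the selecting drug. CellTiter-Glo signal was read on a PHERAstar and scaled to vehicle-only and positive controls. Drug sensitivity score, relative IC50 (the curve midpoint) and top-dose inhibition came from logistic fits run in the Breeze pipeline.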

BT-474 Tam2 = details: 4-OH-tamoxifen in medium 1 µM; 72 h
Procedure, shortened: as §1

BT-474 = details: 72 h
Procedure, shortened: as §1

MCF-7 Tam1 = details: 4-OH-tamoxifen in medium 1 µM; 72 h
Procedure, shortened: as §1

MCF-7 = details: 72 h
Procedure, shortened: as §1

T-47D Tam1 = details: 4-OH-tamoxifen in medium 1 µM; 72 h
Procedure, shortened: as §1

T-47D Tam2 = details: 4-OH-tamoxifen in medium 1 µM; 72 h
Procedure, shortened: as §1

T-47D = details: 72 h
Procedure, shortened: as §1

ZR-75-1 Tam1 = details: 4-OH-tamoxifen in medium 1 µM; 72 h
Procedure, shortened: as §1

ZR-75-1 Tam2 = details: 4-OH-tamoxifen in medium 1 µM; 72 h
Procedure, shortened: as §1

ZR-75-1 = details: 72 h
Procedure, shortened: as §1

| Compound | viability inhibition at highest dose (BT-474 Tam1) | viability inhibition at highest dose (BT-474 Tam2) | viability inhibition at highest dose (BT-474; 4-OH-tamoxifen in medium 0 µM) | viability inhibition at highest dose (BT-474; 4-OH-tamoxifen in medium 1 µM) | viability inhibition at highest dose (MCF-7 Tam1) | viability inhibition at highest dose (MCF-7; 4-OH-tamoxifen in medium 0 µM) | viability inhibition at highest dose (MCF-7; 4-OH-tamoxifen in medium 1 µM) | viability inhibition at highest dose (T-47D Tam1) | viability inhibition at highest dose (T-47D Tam2) | viability inhibition at highest dose (T-47D; 4-OH-tamoxifen in medium 0 µM) | viability inhibition at highest dose (T-47D; 4-OH-tamoxifen in medium 1 µM) | viability inhibition at highest dose (ZR-75-1 Tam1) | viability inhibition at highest dose (ZR-75-1 Tam2) | viability inhibition at highest dose (ZR-75-1; 4-OH-tamoxifen in medium 0 µM) | viability inhibition at highest dose (ZR-75-1; 4-OH-tamoxifen in medium 1 µM) |
| --- | --- | --- | --- | --- | --- | --- | --- | --- | --- | --- | --- | --- | --- | --- | --- |
| Cc1ccc(NC(=O)c2ccc(CN3CCN(C)CC3)cc2)cc1Nc1nccc(-c2cccnc2)n1 [Imatinib] (drug 10000 nM) | 49.1 | 27.2 | -0.39 | 23.3 | 4.63 | -13.1 | 11.1 | 3.96 | 20.5 | 10.4 | 5.9 | 7.91 | 8.38 | 0.33 | 17.8 |
| COc1cccc2c1C(=O)c1c(O)c3c(c(O)c1C2=O)C[C@@](O)(C(=O)CO)C[C@@H]3O[C@H]1C[C@H](N)[C@H](O)[C@H](C)O1 [Doxorubicin] (drug 1000 nM) | 68.5 | 16.9 | 65 | 90.4 | 56.6 | 76.9 | 66.1 | 77.1 | 72.7 | 73 | 76.2 | 76.4 | 73.5 | 62.2 | 82.4 |
| CC(=O)[C@]1(O)Cc2c(O)c3c(c(O)c2[C@@H](O[C@H]2C[C@H](N)[C@H](O)[C@H](C)O2)C1)C(=O)c1ccccc1C3=O [Idarubicin] (drug 1000 nM) | 87.9 | 65 | 77.2 | 96.2 | 39.5 | 80.6 | 66.6 | 83.7 | 45.9 | 68.9 | 59.5 | 55.2 | 62.4 | 61.7 | 52.2 |
| COc1cc(Nc2c(C#N)cnc3cc(OCCCN4CCN(C)CC4)c(OC)cc23)c(Cl)cc1Cl [Bosutinib] (drug 10000 nM) | 96.4 | 95 | 83.1 | 95 | 50.7 | 81.6 | 78.4 | 72 | 77.5 | 41.6 | 66.7 | 22.6 | 57.5 | 17.9 | 28.8 |
| Nc1cc(C(F)(F)F)c(-c2cc(N3CCOCC3)nc(N3CCOCC3)n2)cn1 [Buparlisib (BKM-120)] (drug 10000 nM) | 93.8 | 89.9 | 64.5 | 88.6 | 42.8 | 72.8 | 72.2 | 70.7 | 71.3 | 75.8 | 77.6 | 57 | 61.8 | 57.9 | 48.8 |
| COc1cc(Nc2ncc(F)c(Nc3ccc4c(n3)N(COP(=O)(O)O)C(=O)C(C)(C)O4)n2)cc(OC)c1OC (drug 10000 nM) | 55.4 | 2.03 | -18 | 41.4 | 47.8 | 34.7 | 70.4 | 49.3 | 47.1 | 40.2 | 36.8 | 28.5 | 31.6 | 7.12 | 20.8 |
| CNC(=O)c1ccc(N2C(=S)N(c3ccc(C#N)c(C(F)(F)F)c3)C(=O)C2(C)C)cc1F [Enzalutamide (MDV 3100)] (drug 10000 nM) | 7.43 | 14.2 | -1.06 | -10 | 5.74 | -11.1 | 14.2 | 14 | 7.78 | -6.05 | 1.03 | 6.65 | 5.9 | -12.4 | -0.801 |
| CCC1=C[C@@H]2CN(C1)Cc1c([nH]c3ccccc13)[C@@](C(=O)OC)(c1cc3c(cc1OC)N(C)[C@H]1[C@@](O)(C(=O)OC)[C@H](OC(C)=O)[C@]4(CC)C=CCN5CC[C@]31[C@@H]54)C2 [Vinorelbine (tartrate)] (drug 10000 nM) | 95.6 | 93.8 | 46.9 | 94 | 6.83 | 49.1 | 55.8 | 59.6 | 63 | 6.97 | 31.1 | 29.4 | 29.9 | 26.2 | 36.3 |
| COc1cc(F)c(F)c(Nc2ccc(I)cc2F)c1NS(=O)(=O)C1(C[C@H](O)CO)CC1 [Refametinib (RDEA119)] (drug 10000 nM) | 36.3 | 14 | 9.83 | 54.3 | 33.1 | 44.2 | 39.9 | 31.2 | 22 | 24.3 | 12.7 | 8.84 | 10.6 | 20.6 | 14.9 |
| O=C(CCBr)N1CCN(C(=O)CCBr)CC1 [Pipobroman] (drug 10000 nM) | -12.7 | -8.7 | -11.7 | -7.15 | -9.06 | -15.2 | 9.48 | 1.06 | 9.55 | -14.7 | -5.88 | 1.68 | -10.5 | -15 | -9.45 |
| Cc1sc2c(c1C)C(c1ccc(Cl)cc1)=N[C@@H](CC(=O)OC(C)(C)C)c1nnc(C)n1-2 [(+)JQ1] (drug 10000 nM) | 75 | 76.6 | 31.3 | 68.4 | 15.2 | 52.8 | 59.6 | 46.9 | 29.1 | 34.3 | 16.5 | 43.3 | 37.8 | 29.8 | 30.9 |
| COc1ccc(C2=N[C@@H](c3ccc(Cl)cc3)[C@@H](c3ccc(Cl)cc3)N2C(=O)N2CCNC(=O)C2)c(OC(C)C)c1 [Nutlin-3] (drug 10000 nM) | 33.4 | 29.7 | -7.59 | 11.2 | 16.7 | 28.5 | 45.2 | 15.8 | 20.4 | 1.78 | 1.4 | 31.8 | 42.8 | 36 | 29.7 |
| CC(C)(C)NC(=O)[C@H]1CC[C@H]2[C@@H]3CC[C@H]4NC(=O)C=C[C@]4(C)[C@H]3CC[C@]12C [Finasteride] (drug 10000 nM) | 27.2 | 19.1 | -6.68 | -0.99 | 3.61 | -0.974 | 6.29 | 14.8 | 18 | -5.04 | -8.61 | -2.42 | 4.5 | -8.28 | 7.55 |
| CS(=O)(=O)N1CCN(Cc2cc3nc(-c4cccc5[nH]ncc45)nc(N4CCOCC4)c3s2)CC1 [Pictilisib (GDC-0941)] (drug 10000 nM) | 86.1 | 82.5 | 63.6 | 90.6 | 64.4 | 76.8 | 81.6 | 70.6 | 67.4 | 68.5 | 76.6 | 76.9 | 76.1 | 64.3 | 60.7 |
| O=c1[nH]cc(F)c(=O)[nH]1 [Fluorouracil] (drug 10000 nM) | 1.71 | 0.595 | -7.65 | -2.76 | 8.84 | 35.1 | 4.26 | 5.54 | 9.76 | 13.4 | 10.1 | 8.57 | 17.1 | 16.4 | 15.2 |
| CNC(=O)c1ccccc1Sc1ccc2c(/C=C/c3ccccn3)n[nH]c2c1 [Axitinib] (drug 10000 nM) | 41.2 | 23.2 | 22 | 41.5 | 25 | 33 | 33.2 | 24.7 | 27.1 | 38.7 | 20.7 | 9.18 | 22.8 | 3.79 | 19.2 |
| Cc1cc(Nc2nc(N[C@@H](C)c3ncc(F)cn3)ncc2Cl)[nH]n1 [AZD1480] (drug 1000 nM) | 3.08 | -2.54 | -2.51 | 8 | 1.6 | 13.1 | 6.46 | 2.99 | 3.94 | -12.1 | -7.24 | -2.1 | -3.72 | -6.08 | -11.4 |
| O=P(O)(NCCCl)NCCCl [Ifosfamide mustard] (drug 10000 nM) | -11.5 | -5.04 | -4.47 | -15.1 | -11 | -19.2 | -14.2 | -3.5 | -1.32 | -13.8 | -10.1 | 1.78 | 0.309 | -10.9 | -4.6 |
| CC(C)C[C@H](NC(=O)[C@H](Cc1ccccc1)NC(=O)c1cnccn1)B(O)O [Bortezomib] (drug 1000 nM) | 98.8 | 98.7 | 62.6 | 97.9 | 73.6 | 74.1 | 92.4 | 97.2 | 96.2 | 94.5 | 93.6 | 71.5 | 64.6 | 71 | 64 |
| O=C(NC[C@H](O)CO)c1ccncc1Nc1ccc(I)cc1F (drug 10000 nM) | 13.6 | 6.28 | 17.2 | 48 | 12.7 | 35.6 | 19.8 | 35.6 | 34 | 10.4 | -8.51 | 2.34 | 7.84 | 7.13 | 10 |
| CCCCC(=O)OCC(=O)[C@]1(O)Cc2c(O)c3c(c(O)c2[C@@H](O[C@H]2C[C@H](NC(=O)C(F)(F)F)[C@H](O)[C@H](C)O2)C1)C(=O)c1c(OC)cccc1C3=O [Valrubicin] (drug 10000 nM) | 75.8 | 59.5 | 42.6 | 77.1 | 30.4 | 55 | 77 | 67.9 | 63.2 | 58.2 | 68.2 | 70.3 | 85.4 | 59.8 | 58.9 |
| CCN(CC)CCNC(=O)c1c(C)[nH]c(/C=C2\C(=O)Nc3ccc(F)cc32)c1C (drug 1000 nM) | 13.8 | 1.68 | -3.86 | 33.8 | 7.78 | -3.88 | -9.09 | 6.06 | 3.79 | -6.3 | 13.4 | -5.76 | 2.39 | 5.31 | -5.7 |
| COCC1(CO)C(=O)C2CCN1CC2 (stereo not given) [Prima-1 Met] (drug 10000 nM) | -5.47 | 0.869 | -9.27 | -13.3 | -10.1 | 10.8 | 3.83 | 1.75 | -9.64 | -7.38 | -11.1 | -1.64 | 17.7 | -1.59 | -9.16 |
| C[C@@H](Oc1cc(-c2cnn(C3CCNCC3)c2)cnc1N)c1c(Cl)ccc(F)c1Cl [Crizotinib] (drug 1000 nM) | 4.07 | 7.24 | -4.38 | -15.8 | -0.481 | 0.562 | 6.55 | 0.597 | 2.79 | -19.1 | -7.52 | 0.927 | 0.924 | -7.38 | -5.41 |
| NCC(=O)CCC(=O)O [Aminolevulinic acid] (drug 10000 nM) | 4.33 | -2.75 | -15.6 | -12.3 | -9.27 | -30.6 | 7.57 | -0.747 | 5.5 | -13.1 | -10.6 | -7.01 | -5.25 | -15.3 | -7.45 |
